From patent publication EP0531119B1, “N,N',N'-trisubstituted -5-bis-aminomethylene-1,3-dioxane-4,6-dione inhibitors of acyl-CoA: cholesterol-acyl transferase” (AMERICAN HOME PRODUCTS CORPORATION, priority 1991, dated 1993)

Experiments:
[1] = tested on: ¹⁴C-Cholesterol Absorption; assay: In vivo 14C-cholesterol absorption in normal rats; conditions: oral gavage, blood samples six hours later
Description: Representative compounds were further tested in vivo to establish the percent inhibition of cholesterol absorption. In this study, normal rats were dosed (oral gavage) with ¹⁴C-cholesterol plus the test compound. Blood samples taken exactly six hours later were analyzed and the percent inhibition of cholesterol absorption was calculated as shown in: Table II

[2] = tested on: plasma cholesterol; assay: Cholesterol-cholic acid fed rat, decrease of plasma cholesterol; format: in vivo; conditions: 10 mg/kg, oral gavage just prior to and just following feeding, four days
Description: In addition, the product of Example 1 was studied in vivo in the cholesterol-cholic acid fed rat to determine the percent decrease of cholesterol in their plasma This study involves rats which are, prior to testing, trained for one week to eat over a four hour time period each day. Upon initiation of the experiment, the rats diet is supplemented with 1.0 percent cholesterol and 0.25 percent cholic acid. The rats are dosed with the test compound by oral gavage just prior to and just following the four hour feeding period. This is repeated for four days. On the fifth day, the rats are sacrificed and the total plasma cholesterol content is determined. The percent decrease in elevated plasma cholesterol levels is calculated in comparison with […] controls.

[3] = tested on: acyl-coenzyme A: cholesterol acyltransferase; assay: Inhibition of intracellular cholesterol esterification (ACAT), test procedure of Ross et al.; format: cell-based; conditions: for % Inhib, (Concentration - µM): 25 µM; for IC50: read-out: IC₅₀
Text: The ability of the compounds of this invention to inhibit acyl-coenzyme A: cholesterol acyltransferase was established by initially showing that they inhibited intracellular cholesterol esterification by subjecting them to the standard experimental test procedure of Ross et al., J. Biol. Chem. 259 815 (1984). The results of these studies are presented in: Table I

SMILES | % Inhibition of Absorption ([1]; dose 10 mg/kg) [%] | decrease in plasma cholesterol [2] [%] | % Inhib, (Concentration - µM) [3] | IC50 [3] [µM] | % Inhibition of Absorption ([1]; dose 3 mg/kg) [%]
CCCCCCN(Cc1ccnc2ccccc12)C(Nc1cc(C(C)(C)C)c(O)c(C(C)(C)C)c1)=C1C(=O)OC(C)(C)OC1=O [Example 1, 5-[[[3,5-Bis(1,1-dimethylethyl)-4-hydroxyphenyl]amino][hexyl(4-quinolinylmethyl)amino]methylene]-2,2-dimethyl-1,3-dioxane-4,6-dione] | 72 | 50 | 69 (25) % | 2.96 | 
CCCCCCN(Cc1ccnc2ccccc12)C(Nc1ccc(OC)cc1OC)=C1C(=O)OC(C)(C)OC1=O [Example 2, 5-[[(2,4-Dimethoxyphenyl)amino][hexyl(4-quinolinylmethyl)amino]methylene]-2,2-dimethyl-1,3-dioxane-4,6-dione] |  |  |  |  | 2
CCCCCCN(Cc1ccc2ccccc2n1)C(Nc1cc(C(C)(C)C)c(O)c(C(C)(C)C)c1)=C1C(=O)OC(C)(C)OC1=O [Example 3, 5-[[[3,5-Bis(1,1-dimethylethyl)-4-hydroxyphenyl]amino][hexyl(2-quinolinylmethyl)amino]methylene]-2,2-dimethyl-1,3-dioxane-4,6-dione] |  |  | 55 (25) % | 2.33 | 11
CCCCCCN(Cc1ccc2ccccc2n1)C(Nc1ccc(OC)cc1OC)=C1C(=O)OC(C)(C)OC1=O [Example 4, 5-[[(2,4-Dimethoxyphenyl)amino][hexyl(2-quinolinylmethyl)amino]methylene]-2,2-dimethyl-1,3-dioxane-4,6-dione] |  |  | 72 (25) % | 5.16 | 
CCCCCC(C)N(Cc1ccc2ccccc2n1)C(Nc1ccc(OC)cc1OC)=C1C(=O)OC(C)(C)OC1=O (stereo not drawn) [Example 5] |  |  | 90 (25) % | 2.42 | 
CCCCCC(C)N(Cc1ccc2ccccc2n1)C(Nc1cc(C(C)(C)C)c(O)c(C(C)(C)C)c1)=C1C(=O)OC(C)(C)OC1=O (stereo not drawn) [Example 6] |  |  | 95 (25) % | 1.55 | 
CCCCCC(C)N(Cc1ccnc2ccccc12)C(Nc1ccc(OC)cc1OC)=C1C(=O)OC(C)(C)OC1=O (stereo not drawn) [Example 7, 5-[[(2,4-Dimethoxyphenyl)amino][(1-methylhexyl)(4-quinolinylmethyl)amino]methylene]-2,2-dimethyl-1,3-dioxane-4,6-dione] |  |  | 51 (25) % | 9.41 | 
CCCCCC(C)N(Cc1ccnc2ccccc12)C(Nc1cc(C(C)(C)C)c(O)c(C(C)(C)C)c1)=C1C(=O)OC(C)(C)OC1=O (stereo not drawn) [Example 8, 5-[[[3,5-Bis(1,1-dimethylethyl)-4-hydroxyphenyl]amino][(1-methylhexyl)(4-quinolinylmethyl)amino]methylene]-2,2-dimethyl-1,3-dioxane-4,6-dione] |  |  | 97 (25) % | 1.65 | 
CCCCCCN(Cc1cnc2ccccc2c1)C(Nc1cc(C(C)(C)C)c(O)c(C(C)(C)C)c1)=C1C(=O)OC(C)(C)OC1=O [Example 9, 5-[[[3,5-Bis(1,1-dimethylethyl)-4-hydroxyphenyl]amino][hexyl(3-quinolinylmethyl)amino]methylene]-2,2-dimethyl-1,3-dioxane-4,6-dione] |  |  | 98 (25) % | 1.35 | 
CCCCCCN(Cc1ccncc1)C(Nc1cc(C(C)(C)C)c(O)c(C(C)(C)C)c1)=C1C(=O)OC(C)(C)OC1=O [Example 10, 5-[(3,5-Di-tert-butyl-4-hydroxy-phenylamino)-(hexyl-(pyridin-4-ylmethyl)-amino)-methylene]-2,2-dimethyl-1,3-dioxane-4,6-dione] |  |  | 94 (25) % | 5.82 | 
CCCCCCN(Cc1ccncc1)C(Nc1ccc(OC)cc1OC)=C1C(=O)OC(C)(C)OC1=O [Example 11] |  |  | 24 (25) % |  | 
CCCCCCN(Cc1ccccn1)C(Nc1cc(C(C)(C)C)c(O)c(C(C)(C)C)c1)=C1C(=O)OC(C)(C)OC1=O [Example 12, 5-[(3,5-Di-tert-butyl-4-hydroxy-phenylamino)-(hexyl-(pyridin-2-ylmethyl)-amino]-methylene]-2,2-dimethyl-[1,3]-dioxane-4,6-dione] | 65 |  | 92 (25) % | 4.11 | 
CCCCCCN(Cc1ccccn1)C(Nc1ccc(OC)cc1OC)=C1C(=O)OC(C)(C)OC1=O [Example 13, 5-[(2,4-Dimethoxyphenylamino)-[hexyl-(pyridin-2-ylmethyl)-amino]-methylene]-2,2-dimethyl-[1,3]-dioxane-4,6-dione] |  |  | 26 (25) % |  | 
CCCCCCN(Cc1cccnc1)C(Nc1ccc(OC)cc1OC)=C1C(=O)OC(C)(C)OC1=O [Example 14, 5-[(2,4-Dimethoxy-phenylamino)-[hexyl-(pyridin-3-ylmethyl)-amino]-methylene]-2,2-dimethyl-[1,3]-dioxane-4,6-dione] |  |  | 18 (25) % |  | 
CCCCCCN(Cc1cccnc1)C(Nc1cc(C(C)(C)C)c(O)c(C(C)(C)C)c1)=C1C(=O)OC(C)(C)OC1=O [Example 15, 5-[(3,5-Di-tert-butyl-4-hydroxy-phenylamino)-[hexyl-(pyridin-3-ylmethyl)-amino]-methylene]-2,2-dimethyl-1,3-dioxane-4,6-dione] |  |  | 97 (25) % | 3.9 | 48
CCCCCCCN(Cc1ccc(CC(C)(C)C)s1)C(Nc1ccc(OC)cc1OC)=C1C(=O)OC(C)(C)OC1=O [Example 16, 5-[[(2,4-Dimethoxyphenyl)amino][[[5-(2,2-dimethylpropyl)-2-thienyl]methyl]heptylamino]-methylene]-2,2-dimethyl-1,3-dioxane-4,6-] |  |  | 94 (25) % | 2.96 | 
CCCCCCCN(Cc1ccc(CC(C)(C)C)s1)C(Nc1cc(C(C)(C)C)c(O)c(C(C)(C)C)c1)=C1C(=O)OC(C)(C)OC1=O [Example 17, 5-[[[3,5-Bis(1,1-dimethylethyl)-4-hydroxyphenyl]amino][[[5-(2,2-dimethylpropyl)-2-thienyl]methyl]heptylamino]methylene]-2,2-dimethyl-1,3-dioxane-4,6-dione] |  |  |  | 0.7 | 
CCCCCC(C)N(Cc1ccc(CC(C)(C)C)s1)C(Nc1ccc(OC)cc1OC)=C1C(=O)OC(C)(C)OC1=O (stereo not drawn) [Example 18, 5-[[(2,4-Dimethoxyphenyl)amino][[[5-(2,2-dimethylpropyl)-2-thienyl]methyl](1-methylhexyl)-amino]methylene]-2,2-dimethyl-1,3-dioxane-4,6-dione] |  |  | 97 (25) % |  | 
CCCCCCC(C)N(Cc1ccc(CC(C)(C)C)s1)C(Nc1cc(C(C)(C)C)c(O)c(C(C)(C)C)c1)=C1C(=O)OC(C)(C)OC1=O (stereo not drawn) [Example 19, 5-[[[3,5-Bis(1,1-dimethylethyl)-4-hydroxyphenyl]amino][[[5-(2,2-dimethylpropyl)-2-thienyl]methyl](1-methylheptyl)amino]methylene]-2,2-dimethyl-1,3-dioxane-4,6-dione] |  |  |  | 0.64 | 
COc1ccc(NC(NC(c2ccc(CC(C)(C)C)s2)C2CCCCC2)=C2C(=O)OC(C)(C)OC2=O)c(OC)c1 (stereo not drawn) [Example 20, 5-[[[Cyclohexyl-[5-(2,2-dimethylpropyl)-2-thienyl]methyl]amino]-[(2,4-dimethoxyphenyl)amino]-methylene]-2,2-dimethyl-1,3-dioxane-4,6-dione] |  |  | 95 (25) % |  | 
CCCCCCN(Cc1csc2ccccc12)C(Nc1cc(C(C)(C)C)c(O)c(C(C)(C)C)c1)=C1C(=O)OC(C)(C)OC1=O [Example 21, 5-[(Benzo[b]thiophen-3-ylmethyl-hexyl-amino)-(3,5-di-tert-butyl-4-hydroxy-phenylamino)-methylene]-2,2-dimethyl-[1,3]dioxane-4,6-dione] |  |  | 98 (25) % | 0.38 | 
CCCCCCN(Cc1cc2ccccc2s1)C(Nc1ccc(OC)cc1OC)=C1C(=O)OC(C)(C)OC1=O [Example 22, 5-[[(Benzo[b]thiophen-2-ylmethyl)-hexyl-amino]-(2,4-dimethoxyphenylamino)-methylene]-2,2-dimethyl-[1,3]dioxane-4,6-] |  |  | 94 (25) % | 0.62 | 
CCCCCC(C)N(Cc1cc2ccccc2s1)C(Nc1ccc(OC)cc1OC)=C1C(=O)OC(C)(C)OC1=O (stereo not drawn) [Example 23, 5-[[Benzo[b]thiophen-2-ylmethyl-(1-methyl-hexyl)-amino]-(2,4-dimethoxy-phenylamino)-methylene]-2,2-dimethyl-[1,3]dioxane-4,6-dione] |  |  | 97 (25) % | 0.35 | 
CCCCCC(C)N(Cc1cc2ccccc2s1)C(Nc1cc(C(C)(C)C)c(O)c(C(C)(C)C)c1)=C1C(=O)OC(C)(C)OC1=O (stereo not drawn) [Example 24, 5-[[Benzo[b]thiophen-2-ylmethyl-(1-methyl-hexyl)-amino]-(3,5-di-tert-butyl-4-hydroxy-phenylamino)methylene]-2,2-dimethyl-[1,3]dioxane-4,6-dione] |  |  | 98 (25) % | 0.31 | 
